Measured values reported in patent US12544395B2, “Combination compositions comprising a beta-lactamase inhibitor and uses thereof” (priority 2018, dated 2026).

Key:
Assay type in all cases: cell-based
[1] = test system: three strains of E. coli expressing TEM-1+CTX-M-15, CTX-M-15, and KPC-2+SHV-12; experiment: MIC against the UTI test strains; conditions: with Compound 2 at a fixed concentration of 4 μg/mL
[2] = test system: 21 strains of Enterobacteriaceae expressing various beta-lactamases; experiment: MIC testing of thigh model strains; conditions: with Compound 2 fixed at 4 mg/L
K. pneumoniae 304487 = experiment: Broth microdilution MIC (strain enzymes: SHV-12,TEM-1)
E. coli SI-V502 = experiment: Broth microdilution MIC (strain enzymes: TEM-29, CTX-M15)
K. oxytoca 496 #2 = experiment: Broth microdilution MIC (strain enzymes: SHV-105, TEM-1)
K. pneumoniae ESBL 7 #1 = experiment: Broth microdilution MIC (strain enzymes: SHV-12, TEM-1)
E. coli ESBL 5 = experiment: Broth microdilution MIC (strain enzymes: CTX-M15, TEM-1)

Structure (SMILES): CCC(=O)N[C@H]1Cc2cccc(C(=O)O)c2OB1O [Compound 2, (R)-2-hydroxy-3-propionamido-3,4-dihydro-2H-benzo[e][1,2]oxaborinine-8-carboxylic acid]
- ceftibuten MICs [1]: <0.06 to 0.12 µg/mL
- ceftibuten MICs [2]: ≤ 2 µg/mL
- MIC of cefalexin (LEX) (K. pneumoniae 304487; with inhibitor at 1 μg/mL): 1 µg/mL
- MIC of cefdinir (CDR) (K. pneumoniae 304487; with inhibitor at 1 μg/mL): 1 µg/mL
- MIC of cefixime (CFM) (K. pneumoniae 304487; with inhibitor at 1 μg/mL): 1 µg/mL
- MIC of ceftibuten (CTB) (K. pneumoniae 304487; with inhibitor at 1 μg/mL): 0.25 µg/mL
- MIC of cefalexin (LEX) (K. pneumoniae 304487; with inhibitor at 2 μg/mL): 1 µg/mL
- MIC of cefdinir (CDR) (K. pneumoniae 304487; with inhibitor at 2 μg/mL): 1 µg/mL
- MIC of cefixime (CFM) (K. pneumoniae 304487; with inhibitor at 2 μg/mL): 1 µg/mL
- MIC of ceftibuten (CTB) (K. pneumoniae 304487; with inhibitor at 2 μg/mL): 0.25 µg/mL
- MIC of cefalexin (LEX) (K. pneumoniae 304487; with inhibitor at 4 μg/mL): 2 µg/mL
- MIC of cefdinir (CDR) (K. pneumoniae 304487; with inhibitor at 4 μg/mL): 2 µg/mL
- MIC of cefixime (CFM) (K. pneumoniae 304487; with inhibitor at 4 μg/mL): 0.5 µg/mL
- MIC of ceftibuten (CTB) (K. pneumoniae 304487; with inhibitor at 4 μg/mL): 0.25 µg/mL
- MIC of cefalexin (LEX) (E. coli SI-V502; with inhibitor at 1 μg/mL): 1 µg/mL
- MIC of cefdinir (CDR) (E. coli SI-V502; with inhibitor at 1 μg/mL): 1 µg/mL
- MIC of cefixime (CFM) (E. coli SI-V502; with inhibitor at 1 μg/mL): 0.25 µg/mL
- MIC of ceftibuten (CTB) (E. coli SI-V502; with inhibitor at 1 μg/mL): 0.25 µg/mL
- MIC of cefalexin (LEX) (E. coli SI-V502; with inhibitor at 2 μg/mL): 0.5 µg/mL
- MIC of cefdinir (CDR) (E. coli SI-V502; with inhibitor at 2 μg/mL): 0.5 µg/mL
- MIC of cefixime (CFM) (E. coli SI-V502; with inhibitor at 2 μg/mL): 0.5 µg/mL
- MIC of ceftibuten (CTB) (E. coli SI-V502; with inhibitor at 2 μg/mL): 0.25 µg/mL
- MIC of cefalexin (LEX) (E. coli SI-V502; with inhibitor at 4 μg/mL): 0.5 µg/mL
- MIC of cefdinir (CDR) (E. coli SI-V502; with inhibitor at 4 μg/mL): 0.5 µg/mL
- MIC of cefixime (CFM) (E. coli SI-V502; with inhibitor at 4 μg/mL): 0.25 µg/mL
- MIC of ceftibuten (CTB) (E. coli SI-V502; with inhibitor at 4 μg/mL): 0.125 µg/mL
- MIC of cefalexin (LEX) (K. oxytoca 496 #2; with inhibitor at 1 μg/mL): 0.25 µg/mL
- MIC of cefdinir (CDR) (K. oxytoca 496 #2; with inhibitor at 1 μg/mL): 0.25 µg/mL
- MIC of cefixime (CFM) (K. oxytoca 496 #2; with inhibitor at 1 μg/mL): 0.25 µg/mL
- MIC of ceftibuten (CTB) (K. oxytoca 496 #2; with inhibitor at 1 μg/mL): 0.125 µg/mL
- MIC of cefalexin (LEX) (K. oxytoca 496 #2; with inhibitor at 2 μg/mL): 0.25 µg/mL
- MIC of cefdinir (CDR) (K. oxytoca 496 #2; with inhibitor at 2 μg/mL): 0.25 µg/mL
- MIC of cefixime (CFM) (K. oxytoca 496 #2; with inhibitor at 2 μg/mL): 0.125 µg/mL
- MIC of ceftibuten (CTB) (K. oxytoca 496 #2; with inhibitor at 2 μg/mL): 0.125 µg/mL
- MIC of cefalexin (LEX) (K. oxytoca 496 #2; with inhibitor at 4 μg/mL): 0.06 µg/mL
- MIC of cefdinir (CDR) (K. oxytoca 496 #2; with inhibitor at 4 μg/mL): 0.06 µg/mL
- MIC of cefixime (CFM) (K. oxytoca 496 #2; with inhibitor at 4 μg/mL): 0.06 µg/mL
- MIC of ceftibuten (CTB) (K. oxytoca 496 #2; with inhibitor at 4 μg/mL): 0.125 µg/mL
- MIC of cefalexin (LEX) (K. pneumoniae ESBL 7 #1; with inhibitor at 1 μg/mL): 0.5 µg/mL
- MIC of cefdinir (CDR) (K. pneumoniae ESBL 7 #1; with inhibitor at 1 μg/mL): 0.5 µg/mL
- MIC of cefixime (CFM) (K. pneumoniae ESBL 7 #1; with inhibitor at 1 μg/mL): 4 µg/mL
- MIC of ceftibuten (CTB) (K. pneumoniae ESBL 7 #1; with inhibitor at 1 μg/mL): 0.25 µg/mL
- MIC of cefalexin (LEX) (K. pneumoniae ESBL 7 #1; with inhibitor at 2 μg/mL): 1 µg/mL
- MIC of cefdinir (CDR) (K. pneumoniae ESBL 7 #1; with inhibitor at 2 μg/mL): 1 µg/mL
- MIC of cefixime (CFM) (K. pneumoniae ESBL 7 #1; with inhibitor at 2 μg/mL): 4 µg/mL
- MIC of ceftibuten (CTB) (K. pneumoniae ESBL 7 #1; with inhibitor at 2 μg/mL): 0.25 µg/mL
- MIC of cefalexin (LEX) (K. pneumoniae ESBL 7 #1; with inhibitor at 4 μg/mL): 0.5 µg/mL
- MIC of cefdinir (CDR) (K. pneumoniae ESBL 7 #1; with inhibitor at 4 μg/mL): 0.5 µg/mL
- MIC of cefixime (CFM) (K. pneumoniae ESBL 7 #1; with inhibitor at 4 μg/mL): 1 µg/mL
- MIC of ceftibuten (CTB) (K. pneumoniae ESBL 7 #1; with inhibitor at 4 μg/mL): 0.125 µg/mL
- MIC of cefalexin (LEX) (E. coli ESBL 5; with inhibitor at 1 μg/mL): 8 µg/mL
- MIC of cefdinir (CDR) (E. coli ESBL 5; with inhibitor at 1 μg/mL): 8 µg/mL
- MIC of cefixime (CFM) (E. coli ESBL 5; with inhibitor at 1 μg/mL): 1 µg/mL
- MIC of ceftibuten (CTB) (E. coli ESBL 5; with inhibitor at 1 μg/mL): 0.25 µg/mL
- MIC of cefalexin (LEX) (E. coli ESBL 5; with inhibitor at 2 μg/mL): 2 µg/mL
- MIC of cefdinir (CDR) (E. coli ESBL 5; with inhibitor at 2 μg/mL): 2 µg/mL
- MIC of cefixime (CFM) (E. coli ESBL 5; with inhibitor at 2 μg/mL): 1 µg/mL
- MIC of ceftibuten (CTB) (E. coli ESBL 5; with inhibitor at 2 μg/mL): 0.125 µg/mL
